Tests used:
PDAC cells [1] = assay: Cell proliferation assay (crystal violet); type: cell-based, human; settings: for PDAC growth (relative growth): 8988T cells treated with inhibitor, FIG. 7A/7B
Description: (§1) Cells were plated in 24-well plates at 2,000 cells per well in 0.5 mL of media. To deprive Gln, cells were plated in complete culture medium (10 mM glucose and 2 mM Gln) which was exchanged with Gln-free culture medium supplemented with 10% dFBS the following day. Cell culture media was not changed throughout the course of the experiment. At the indicated time points, cells were fixed in 10% formalin and stained with 0.1% crystal violet. Dye was extracted with 10% acetic acid and the relative proliferation was determined by OD at 595 nm.

[2] = system: HPDE (non-transformed human pancreatic ductal epithelial cells); assay: Cell proliferation assay, non-transformed pancreatic ductal cells; type: cell-based; settings: FIG. 30A/30B
Description: as §1

[3] = system: IMR90 (human diploid fibroblasts); assay: Cell proliferation assay, diploid fibroblasts; type: cell-based; settings: FIG. 30A/30B
Description: as §1

PDAC cells [4] = assay: Clonogenic assay; type: cell-based, human; settings: for sensitivity of clonogenic growth upon Kras knockdown: 8988T cells expressing shKras; for sensitivity of clonogenic growth upon Kras knockdown / clonogenic growth: FIG. 34; for clonogenic growth: 8988T cells, control shRNA; for rescue of clonogenic growth upon Gln deprivation: Gln-free medium supplemented with metabolite, FIG. 5, 22, 26, 29
Description: Cells were plated in 6-well plates at 300 cells per well in 2 mL of media. Cell culture media was not changed throughout the course of the experiment. After 7-10 days, colonies were fixed in 80% methanol and stained with 0.2% crystal violet.

[5] = system: PDAC cells (8988T, Panc1); assay: Sensitization of PDAC cells to ROS / cell viability with GLS inhibitors (Cell Titer Glo); type: cell-based, human; settings: for relative cell viability (growth suppressive effect): 8988T or Panc1 cells, GLS inhibitor alone, FIG. 36; for relative cell viability, GLS inhibitor combined with H2O2: 8988T, Panc1, 968 or BPTES (100 nM) with increasing H2O2, FIG. 37, 38
Description: PDAC cell lines were plated into 96-well plates at 10^3 cells/well in 200 μL of growth medium. The following day, growth medium was replaced with that containing GLS inhibitors and/or H2O2. Parallel plates were analyzed at 3, 6 and 9 days by Cell Titer Glo analysis (Promega), per the manufacturer's instruction. […] BPTES was a kind gift from Jaime Escobedo (Forma Therapeutics, Watertown, Mass.).

8988T cells = assay: ROS quantification (DCFDA assay, flow cytometry); type: cell-based, human
Description: The DCFDA assay was performed 24 hr after supplementing Gln-free media with either OAA (4 mM) or dimethyl malate (4 mM). Cells were incubated with 5 μM 2′,7′-dichlorodihydrofluorescein diacetate (DCFDA, Invitrogen) for 30 min. Excess DCFDA was removed by washing the cells twice with PBS, and labeled cells were then trypsinized, rinsed, and resuspended in PBS. Oxidation of DCFDA to the highly fluorescent 2′,7′-dichloro-fluorescein (DCF) is proportionate to ROS generation and was analyzed by flow cytometry.

`NOCC(=O)O` [AOA, aminooxyacetate] was tested, and the “PDAC growth (relative growth)” value (PDAC cells [1]) was “robustly inhibited the growth”, the “growth (relative growth) of HPDE cells” value [2] was “no significant effect on growth” and the “growth (relative growth) of IMR90 cells” value [3] was “no significant effect on growth”. The “sensitivity of clonogenic growth upon Kras knockdown” value (PDAC cells [4]) was “significantly more resistant” and the clonogenic growth (PDAC cells [4]) was “significantly inhibited clonogenic growth”.
`O=C(Cc1ccccc1)Nc1nnc(CCSCCc2nnc(NC(=O)Cc3ccccc3)s2)s1` [BPTES] was tested, and the “relative cell viability (growth suppressive effect)” value [5] was “growth suppressive effect” and the “relative cell viability, GLS inhibitor combined with H2O2” value [5] was “dramatically augmented”.
With `O=C(O[C@@H]1Cc2c(O)cc(O)cc2O[C@@H]1c1cc(O)c(O)c(O)c1)c1cc(O)c(O)c(O)c1` [EGCG, Epigallocatechin Gallate] the “PDAC growth (relative growth)” value (PDAC cells [1]) was “little effect”, the “growth (relative growth) of HPDE cells” value [2] was “significantly sensitive” and the “sensitivity of clonogenic growth upon Kras knockdown” value (PDAC cells [4]) was “sensitive”. The clonogenic growth (PDAC cells [4]) was “minimal effects”.
For `N[C@@H](CCC(=O)N[C@@H](CS)C(=O)NCC(=O)O)C(=O)O` [GSH, reduced glutathione], the “rescue of clonogenic growth upon Gln deprivation” value (PDAC cells [4]) was “dramatically rescued the clonogenic survival”.
`CN(C)c1ccc(C2Nc3ccc4ccccc4c3C3=C2C(=O)CC(C)(C)C3)cc1Br` (stereo not shown) [compound 968] was tested, and the “relative cell viability (growth suppressive effect)” value [5] was “growth suppressive effect” and the “relative cell viability, GLS inhibitor combined with H2O2” value [5] was “dramatically augmented”.
`COC(=O)CCC(=O)C(=O)OC` [dimethyl αKG] was tested, and the “rescue of clonogenic growth upon Gln deprivation” value (PDAC cells [4]) was “did not restore growth”.
In the case of `COC(=O)CC(O)C(=O)OC` (stereo not shown) [dimethyl-malate], the “rescue of PDAC cell growth upon GOT1 knockdown” value (PDAC cells [1]; 8988T cells expressing shGOT1, 4 mM supplement, FIG. 28) was “partially rescue PDAC cell growth”, the “rescue of cell proliferation upon Gln deprivation” value (PDAC cells [1]; Gln-free medium supplemented with metabolite, FIG. 6, 27) was “partially rescue PDAC cell growth” and the “ROS levels (DCFDA signal) upon GOT1 knockdown” value (8988T cells; 8988T cells expressing shGOT1, medium supplementation) was “rescued the oxidative stress”. The “ROS levels (DCFDA signal) upon Gln deprivation” value (8988T cells; Gln-free media supplemented 24 hr, 4 mM) was “rescued the oxidative stress”.

Reference: patent publication US10837015B2, “Targeting the glutamine to pyruvate pathway for treatment of oncogenic Kras-associated cancer” (Dana-Farber Cancer Institute, Inc., priority 2012, dated 2020)
